IC50 data for 7 compounds are collected here from patent US7838676B2, “Beta-secretase modulators and methods of use” (Amgen Inc., priority 2005, dated 2010).

A word on the IC50: it is the concentration that gives 50% inhibition. A high value points to lower potency.

The subject of the assay is Aβ40 in conditioned medium of APP containing cells. The assay can be described thus: BACE Cell-Based Assay (Aβ40 sandwich ELISA, HEK-293 cells stably expressing APP). The note with it: Homo sapiens, HEK293, inhibition of Aβ 40 in conditioned media after 24 h. The method, then: The cell-based assay measures inhibition or reduction of Aβ40 in conditioned medium of test compound treated APP containing cells.
Cells stably expressing Amyloid Precursor Protein (APP) were plated at a density of 40K cells/well in 96 well plates (Costar). The cells were cultivated for 24 h at 37° C. and 5% CO2 in DMEM supplemented with 10% FBS. The test compounds were then added to cells in 10-point dose response concentrations with the starting concentration being either 100 μM or 10 μM. The compounds were diluted from stock solutions in DMSO and the final DMSO concentration of the test compounds on cells was 0.1%. After 24 h of incubation with the test compounds the supernatant conditioned media was collected and the Aβ 40 levels were determined using a sandwich ELISA. The IC50 of the compound was calculated from the percent of control or percent inhibition of Aβ 40 as a function of the concentration of the test compound.
The sandwich ELISA to detect Aβ 40 was performed in 96 well microtiter plates, which were pre-treated with goat anti-rabbit IgG (Pierce). The capture and detecting antibody pair that were used to detect Aβ 40 from cell supernatants were affinity purified pAb40 (Biosource) and biotinylated 6E10 (Signet Labs Inc.), respectively. The optimal concentration for the pAb40 antibody was 3 μg/ml in Superblock/TBS (Pierce) that was supplemented with 0.05% Tween 20 (Sigma). Optimal concentration for the detection antibody 6E10-biotinylated was 0.5 μg/ml in Superblock/TBS (Pierce) that had been supplemented with 2% normal goat serum and 2% normal mouse serum.
Cellular supernatants were incubated with the capture antibody for 3 h at 4° C., followed by 3 wash steps in TBS-tween (0.05%). The detecting antibody incubation was for 2 h at 4° C., again followed by the wash steps as described previously. The final readout of the ELISA is Time-Resolved Fluorescence (counts per minute) using Delfia reagents Streptavidin-Europium and Enhancement solutions (Perkin Elmer) and the Victor 2 multilabel counter (Perkin Elmer).
Background: ELISA stands for enzyme-linked immunosorbent assay.
Take `CCc1ccc2c(c1)[C@@H](NC[C@@H](O)[C@H](Cc1ccccc1)NC(=O)c1cncnc1)CC1(CCC1)O2` [Example 19, N-((2S,3R)-4-((S)-6-ethyl-2,2-spirocyclobutylchroman-4-ylamino)-3-hydroxy-1-phenylbutan-2-yl)pyrimidine-5-carboxamide]: the IC50 is ≤ 5 µM.
With `CCc1ccc2c(c1)[C@@H](NC[C@@H](O)[C@H](Cc1ccccc1)NC(=O)c1cc(N3CCCC3=O)ccc1OC)CC1(CCCC1)O2` [Example 30, N-((2S,3R)-4-((S)-6-ethyl-2,2-spirocyclopentylchroman-4-ylamino)-3-hydroxy-1-phenylbutan-2-yl)-2-methoxy-5-(2-oxopyrrolidin-1-yl)benzamide] the figure was ≤ 5 µM; with `CCc1ccc2c(c1)[C@@H](NC[C@@H](O)[C@H](Cc1ccccc1)NC(=O)c1cccc(-c3ccccn3)c1)CC1(CCCC1)O2` [Example 106], ≤ 5 µM; with `Cc1cnc2c(c1)[C@@H](NC[C@@H](O)[C@H](Cc1cc(F)cc(F)c1)NC(=O)c1ccc(N3CCCC3=O)c(F)c1)CC1(CCC1)C2` [Example 146, N-((1S,2R)-1-((3,5-difluorophenyl)methyl)-2-hydroxy-3-(((5′S)-3′-methyl-5′,8′-dihydro-6′H-spiro[cyclobutane-1,7′-quinolin]-5′-yl)amino)propyl)-3-fluoro-4-(2-oxo-1-pyrrolidinyl)benzamide], ≤ 5 µM.
Consider `O=C(N[C@@H](Cc1ccccc1)[C@H](O)CN[C@H]1CC2(CCC2)Oc2ccc(Br)cc21)c1ccno1` [Example 162, N-((1S,2R)-3-(((4S)-6-bromo-3,4-dihydrospiro[chromene-2,1′-cyclobutan]-4-yl)amino)-2-hydroxy-1-(phenylmethyl)propyl)-5-isoxazolecarboxamide], for which the IC50 was ≤ 5 µM.
With `CCc1ccc2c(c1)[C@@H](NC[C@@H](O)[C@H](Cc1ccccc1)NC(=O)c1ccnc(N3CCCCC3)c1)CC1(CCCC1)O2` [Example 167, N-((2S,3R)-4-((S)-6-ethyl-2,2-spirocyclopentylchroman-4-ylamino)-3-hydroxy-1-phenylbutan-2-yl)-2-(piperidin-1-yl)isonicotinamide] the figure was ≤ 5 µM; with `CCc1ccc2c(c1)[C@@H](NC[C@@H](O)[C@H](Cc1ccccc1)NC(=O)c1ccnc(N3CCOCC3)c1)CC1(CCCC1)O2` [Example 169, N-((2S,3R)-4-((S)-6-ethyl-2,2-spirocyclopentylchroman-4-ylamino)-3-hydroxy-1-phenylbutan-2-yl)-2-morpholinoisonicotinamide], ≤ 5 µM.
